The values below come from ChEMBL document CHEMBL1143621, “Identification and structure-activity relationship of phenolic acyl hydrazones as selective agonists for the estrogen-related orphan nuclear receptors ERRbeta and ERRgamma” (J Med Chem, 2005).

The first test addresses T1, Estrogen-related receptor gamma (Homo sapiens, UniProt P62508).
T1 sequence (P62508 whole entry): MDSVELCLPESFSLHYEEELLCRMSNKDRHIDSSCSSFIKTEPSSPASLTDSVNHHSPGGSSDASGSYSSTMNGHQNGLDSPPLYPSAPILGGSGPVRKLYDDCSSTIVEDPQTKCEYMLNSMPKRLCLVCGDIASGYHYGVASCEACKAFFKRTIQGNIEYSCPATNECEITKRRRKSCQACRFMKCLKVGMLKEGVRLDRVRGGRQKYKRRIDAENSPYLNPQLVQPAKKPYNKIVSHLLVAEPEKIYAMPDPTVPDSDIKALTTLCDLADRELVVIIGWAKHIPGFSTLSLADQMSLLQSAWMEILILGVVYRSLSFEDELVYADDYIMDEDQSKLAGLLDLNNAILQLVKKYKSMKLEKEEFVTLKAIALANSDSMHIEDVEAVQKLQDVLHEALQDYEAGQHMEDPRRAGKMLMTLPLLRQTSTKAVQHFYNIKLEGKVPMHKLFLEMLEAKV
Description: Estrogen-Related Receptor gamma activity in FRET assay. The test is classed as functional.
In the case of `CCN(CC)c1ccc(/C=N/NC(=O)c2ccc(O)cc2)cc1`, the EC50 is 130 nM.

In turn, `CCN(CC)c1ccc(/C=N/NC(=O)c2ccc(N)cc2)cc1` showed an EC50 of 630 nM.

Take `CCN(CC)c1ccc(/C(C)=N/NC(=O)c2ccc(O)cc2)cc1`: the half-maximal effective concentration (EC50) is 500 nM. Same read-out and setting: as for `CCN(CC)c1ccc(/C=N/NC(=O)c2ccccc2)cc1`, the figure is 1600 nM.

A further test deals with T1, Estrogen-related receptor gamma. Put plainly: Estrogen-Related Receptor gamma activity in FRET assay; i.a.=inactive at 3 uM. The test is classed as functional.
In the case of `CC(C)(C)Oc1ccc(/C=N/NC(=O)c2ccc(O)cc2)cc1`, the EC50 result was “Not Active”. As for `CCN(CC)c1ccc(/C=N/NS(=O)(=O)c2ccc(O)cc2)cc1`, the EC50 result was “Not Active”. Same read-out and setting: as for `CCN(CC)c1ccc(/C=N/NC(=O)c2ccc(F)cc2)cc1`, the entry is “Not Active”; as for `CC(C)c1ccc(C(=O)NNC(=O)c2ccc(O)cc2)cc1`, “Not Active”; as for `CCN(CC)c1ccc(/C=N/NC(=O)c2ccc(O)cc2)c(O)c1`, “Not Active”.

The target is the same in another test. Put plainly: Inhibition of [3H]4-OHT binding to Estrogen-Related Receptor gamma.
The molecule `CCN(CC)c1ccc(/C=N/NC(=O)c2ccc(O)cc2)cc1` showed an IC50 of 660 nM.
